# According to patent US9522891B2, “Pyridazine derivatives and use thereof as medicaments for treating microRNA viral infection” (INSTITUTE OF PHARMACOLOGY AND TOXICOLOGY ACADEMY OF …, priority 2010, dated 2016):
# Legend:
# HeLa cells = assay: Determination of the maximum nontoxic dose of the compound; type: cell-based; settings: observed each 24 h for 3 days
# Experimental: The drug was dissolved in DMSO, diluted with cell maintenance medium by 20 times, then diluted stepwise by 2 times to form working solutions with different concentrations. HeLa cells were inoculated on 96-well plate in an amount of 10,000 (0.1 mL) per well, added with 0.1 mL maintenance medium, incubated at 37° C. in adherence manner, sucked to remove maintenance medium, replaced it with 0.2 mL of compound working solution, and maintenance medium was used as control. The growth of cell was observed each 24 h, for 3 days.
# rhinovirus 3 (HRV-3) [1] = assay: Prophylactic administration, cell protection from CPE; type: cell-based; settings: 100 ng/ml, TCID50 about 100, 3 days
# rhinovirus 3 (HRV-3) [2] = assay: Therapeutic administration, cell protection from CPE; type: cell-based
# rhinovirus 3 (HRV-3) [3] = assay: Measurement of half effective concentration (therapy); type: cell-based; settings: Enterovirus, HRV3, HeLa cells, TCID50 about 100, 48 h, prevents 50% cells from CPE
# rhinovirus 3 (HRV-3) [4] = assay: Measurement of inhibition index of compound; type: cell-based; settings: highest dilution times of viral inhibition/nontoxic limit dilution times
# Experimental: The inhibition index of drug was calculated: inhibition index=highest dilution times of viral inhibition/nontoxic limit dilution times.
# rhinovirus 3 (HRV-3) [5] = assay: Maximum viral inhibition concentration; type: cell-based; settings: compound concentration giving 100% inhibition of TCID50 about 100; virus added in doubling manner
# rhinovirus (HRV) = settings: cited from earlier work
# [6] = Bioorg Med Chem. 2009, 17: 621-624; cited from earlier work
smiles,measurement,setting,value
"COC(=O)c1ccc(OCCCN2CCN(c3ccc(Cl)nn3)CC2)cc1 [Example 5, 4-{3-[4-(6-chloropyridazin-3-yl)piperazin-1-yl]propoxy} benzoic acid methyl ester]",melting point,,128 to 130 °C
"Cc1ccc(OCCCN2CCN(c3ccc(Cl)nn3)CC2)cc1 [Example 2, 3-{4-[3-(4-methylphenoxy)propyl]piperazin-1-yl}-6-chloropyridazine]",melting point,,129 to 131 °C
"CCOC(=O)c1ccc(OCCCN2CCN(c3ccc(Cl)nn3)CC2)cc1 [Example 6, 4-{3-[4-(6-chloropyridazin-3-yl)piperazin-1-yl]propoxy}benzoic acid ethyl ester]",melting point,,125 to 127 °C
"CC(C)c1ccc(OCCCN2CCN(c3ccc(Cl)nn3)CC2)cc1 [Example 4, 3-{4-[3-(4-isopropylphenoxy)propyl]piperazin-1-yl}-6-chloropyridazine]",melting point,,125 to 127 °C
"CCOc1ccc(OCCN2CCN(c3cc(Cl)nnc3Cl)CC2)cc1 [Control 2, 3,6-dichloro-4-{4-[2-(4-ethoxylphenoxy)ethyl]piperazin-1-yl}pyridazine]",Maximum nontoxic dose,HeLa cells,31.3 µg/mL
same,protection effects in preventing phagocytosis (CPE),rhinovirus 3 (HRV-3) [1],good protection effects
same,protection effects,rhinovirus 3 (HRV-3) [2]; therapeutic administration condition,good protection effects
same,Cell protection rate,"rhinovirus 3 (HRV-3) [2]; therapeutic administration, 100 ng/mL, TCID50 100, HeLa cells, 48 h",100%
same,EC50,rhinovirus 3 (HRV-3) [3],0.025 µg/mL
same,Inhibition index,rhinovirus 3 (HRV-3) [4],1/625
same,Maximum inhibition virus titer,rhinovirus 3 (HRV-3) [5],≦200 TCID50
same,index of selectivity,"rhinovirus (HRV); Bioorg Med Chem. 2009, 17: 621-624",relatively high index of selectivity
same,inhibition activity to HRV,"rhinovirus (HRV); compared to Pirodavir, Bioorg Med Chem. 2009, 17: 621-624",activity comparable to Pirodavir
same,toxicity,[6],relatively low toxicity
CCOC(=O)c1ccc(OCCC2CCN(c3ccc(C)nn3)CC2)cc1 [Pirodavir],activity against rhinovirus (HRV),"rhinovirus (HRV); in vivo and in vitro, literature",significant activity
"CCc1ccc(OCCCN2CCN(c3ccc(Cl)nn3)CC2)cc1 [Example 3, 3-{4-[3-(4-ethylphenoxy)propyl]piperazin-1-yl}-6-chloropyridazine]",melting point,,123 to 125 °C
"CCOc1ccc(OCCCN2CCN(c3ccc(Cl)nn3)CC2)cc1 [Example 1, 3-{4-[3-(4-ethoxylphenoxy)propyl]piperazin-1-yl}-6-chloropyridazine]",melting point,,125 to 127 °C
